Measurements: patent publication US8092810B2, “Use of polypeptides having antimicrobial activity” (Novozymes A/S, priority 2006, dated 2012)
≈ marks a conversion by molar mass, not a printed value. Where two headings read alike, the source gives them in different places.

Key:
Test in all cases: MIC broth microdilution
Type in all cases: cell-based
[1] = system: Streptococcus pneumoniae (TCRSP) ATCC 700902
Protocol: (§1) Briefly, the MIC was determined by microbroth dilution assay in a 96 well plate. 4-5 colonies of each bacterium tested were added to 5 ml of MHB, placed in a 35° C. shaker until the OD 600 nm reached 0.08-0.10. The inoculum was diluted 1:100 and 50 microliters were added to each well which contained 50 microliters of serial two fold dilutions of Lento, vancomycin or ciprofloxacin. Each concentration of antibiotic or Lento was tested in duplicate. The plate was placed at 35° C. overnight. MICs were determined after 24 hours incubation and defined by the well containing the lowest amount of antibiotic with no visible growth.

[2] = system: Staphylococcus aureus subsp. aureus (MRSA) ATCC 700788
Protocol: as §1

[3] = system: Enterococcus faecalis (VRE) ATCC 51299
Protocol: as §1

[4] = system: Staphylococcus aureus subsp. aureus (MRSA & GISA) ATCC 700789
Protocol: as §1

[5] = system: Staphylococcus aureus ATCC 29737; conditions: Staphylococcus aureus, ATCC29737, 24 h
Protocol: as §1

[6] = system: Staphylococcus aureus (GISA) ATCC 700699
Protocol: as §1

[7] = system: Eschericia coli ATCC 10536
Protocol: as §1

[8] = system: Micrococcus luteus ATCC 9341
Protocol: as §1

[9] = system: Salmonella typhimurium ATCC 13311; conditions: Salmonella enterica
Protocol: as §1

[10] = system: Shigella dysenteriae ATCC 11835; conditions: Shigella dysenteriae, ATCC11835, 24 h
Protocol: as §1

[11] = system: Corynebacterium jeikeium ATCC 43734; conditions: Corynebacterium jeikeium, ATCC43734, 24 h
Protocol: as §1

[12] = system: Eschericia coli ATCC 35218; conditions: 24 h
Protocol: as §1

[13] = system: Acinetobacter sp. ATCC 49137
Protocol: as §1

[14] = system: Staphylococcus aureus ATCC 27734
Protocol: as §1

[15] = system: Streptococcus pneumoniae (PSRSP) ATCC 700671
Protocol: as §1

[16] = system: Enterococcus faecium ATCC 51559; conditions: ATCC51559; Enterococcus faecium ATCC 51559, Gram +; MHB, 35° C., 24 hours; read-out: MIC
Protocol: as §1

[17] = system: Eschericia coli ATCC 25922
Protocol: as §1

[18] = system: Staphylococus aureus (GISA) ATCC 700787
Protocol: as §1

[19] = system: Streptococcus pneumoniae ATCC 49619
Protocol: as §1

[20] = system: Staphylococcus epidermidis ATCC 12228; conditions: Staphylococcus epidermidis, ATCC12228, 24 h
Protocol: as §1

[21] = system: Streptococcus pneumoniae ATCC 700676
Protocol: as §1

[22] = system: Burkholderia cepacia ATCC 25416
[23] = system: Stenotrophomas maltophilia ATCC 13637; conditions: 24 h
Protocol: as §1

[24] = system: Bacillus cereus ATCC 4342; conditions: Bacillus cereus, ATCC4342, 24 h
Protocol: as §1

[25] = system: Staphylococcus aureus ATCC 29213; conditions: Staphylococcus aureus, ATCC29213, 24 h
Protocol: as §1

[26] = system: Corynebacterium jeikeium ATCC 43216; conditions: Corynebacterium jeikeium, ATCC43216, 24 h
Protocol: as §1

[27] = system: Staphylococcus aureus (MRSA) ATCC 33591; conditions: 24 h
Protocol: as §1

[28] = system: Klebsiella pneumoniae ATCC 10031; conditions: ATCC10031, 24 h
Protocol: as §1

[29] = system: Pseudomonas aeruginosa ATCC 27853; conditions: ATCC27853, 24 h
Protocol: as §1

O=C(O)c1cn(C2CC2)c2cc(N3CCNCC3)c(F)cc2c1=O [Ciprofloxacin]
MIC ([1]; ATCC700902, Streptococcus pneumoniae (TCRSP) ATCC 700902, Gram +, MHB, 35° C., 24 hours, read-out: MIC): 0.5 to 1 µg/mL (≈ 1.51 to 3.02 µM)
MIC ([2]; Staphylococcus aureus subsp. aureus (MRSA) ATCC 700788, Gram +, MHB, 35° C., 24 hours, read-out: MIC): 8 µg/mL (≈ 24.1 µM)
MIC ([3]; Enterococcus faecalis (VRE) ATCC 51299, Gram +, MHB, 35° C., 24 hours, read-out: MIC): 0.5 µg/mL (≈ 1.51 µM)
MIC ([4]; Staphylococcus aureus subsp. aureus (MRSA & GISA) ATCC 700789, Gram +, MHB, 35° C., 24 hours, read-out: MIC): 16 µg/mL (≈ 48.3 µM)
MIC [5]: 0.0625 to 0.25 µg/mL (≈ 0.189 to 0.754 µM)
MIC ([6]; ATCC700699, Staphylococcus aureus (GISA) ATCC 700699, Gram +, MHB, 35° C., 24 hours, read-out: MIC): 16 µg/mL (≈ 48.3 µM)
MIC ([7]; Eschericia coli ATCC 10536, Gram −, MHB, 35° C., 24 hours, read-out: MIC): 0.0625 µg/mL (≈ 0.189 µM)
MIC ([8]; ATCC9341, Micrococcus luteus ATCC 9341, Gram +, MHB, 35° C., 24 hours, read-out: MIC): 1 µg/mL (≈ 3.02 µM)
MIC ([9]; Salmonella typhimurium ATCC 13311, Gram −, MHB, 35° C., 24 hours, read-out: MIC): 0.0625 µg/mL (≈ 0.189 µM)
MIC [10]: 0.0625 µg/mL (≈ 0.189 µM)
MIC [11]: 0.0625 µg/mL (≈ 0.189 µM)
MIC [12]: 0.0625 µg/mL (≈ 0.189 µM)
MIC ([13]; ATCC49137, Acinetobacter sp. ATCC 49137, Gram −, MHB, 35° C., 24 hours, read-out: MIC): 0.0625 µg/mL (≈ 0.189 µM)
MIC ([14]; ATCC27734, Staphylococcus aureus ATCC 27734, Gram +, MHB, 35° C., 24 hours, read-out: MIC): 8 µg/mL (≈ 24.1 µM)
MIC ([15]; ATCC700671, Streptococcus pneumoniae (PSRSP) ATCC 700671, Gram +, MHB, 35° C., 24 hours, read-out: MIC): 1 to 2 µg/mL (≈ 3.02 to 6.04 µM)
MIC [16]: > 64 µg/mL
MIC ([17]; Eschericia coli ATCC 25922, Gram −, MHB, 35° C., 24 hours, read-out: MIC): 0.0625 µg/mL (≈ 0.189 µM)
MIC ([18]; Staphylococus aureus (GISA) ATCC 700787, Gram +, MHB, 35° C., 24 hours, read-out: MIC): 16 µg/mL (≈ 48.3 µM)
MIC ([19]; ATCC49619, Streptococcus pneumoniae ATCC 49619, Gram +, MHB, 35° C., 24 hours, read-out: MIC): 0.5 µg/mL (≈ 1.51 µM)
MIC [20]: 0.0625 µg/mL (≈ 0.189 µM)
MIC ([21]; ATCC700676, Streptococcus pneumoniae ATCC 700676, Gram +, MHB, 35° C., 24 hours, read-out: MIC): 1 µg/mL (≈ 3.02 µM)
MIC ([22]; ATCC25416, Burkholderia cepacia ATCC 25416, Gram −, MHB, 35° C., 24 hours, read-out: MIC): 0.25 µg/mL (≈ 0.754 µM)

CN[C@H](CC(C)C)C(=O)N[C@H]1C(=O)N[C@@H](CC(N)=O)C(=O)N[C@H]2C(=O)N[C@H]3C(=O)N[C@H](C(=O)N[C@H](C(=O)O)c4cc(O)cc(O)c4-c4cc3ccc4O)[C@H](O)c3ccc(c(Cl)c3)Oc3cc2cc(c3O[C@@H]2O[C@H](CO)[C@@H](O)[C@H](O)[C@H]2O[C@H]2C[C@](C)(N)[C@H](O)[C@H](C)O2)Oc2ccc(cc2Cl)[C@H]1O [Vancomycin, vancomycin]
MIC [23]: 32 µg/mL (≈ 22.1 µM)
MIC ([1]; Streptococcus pneumoniae, ATCC700902, 24 h): 0.25 µg/mL (≈ 0.173 µM)
MIC ([2]; Staphylococcus aureus, 24 h): 2 µg/mL (≈ 1.38 µM)
MIC [24]: 1 µg/mL (≈ 0.69 µM)
MIC [25]: 0.5 µg/mL (≈ 0.345 µM)
MIC ([3]; Enterococcus faecalis, 24 h): 2 µg/mL (≈ 1.38 µM)
MIC ([4]; Staphylococcus aureus, 24 h): 2 µg/mL (≈ 1.38 µM)
MIC [5]: 0.5 µg/mL (≈ 0.345 µM)
MIC ([6]; Staphylococcus aureus, ATCC700699, 24 h): 8 µg/mL (≈ 5.52 µM)
MIC ([7]; 24 h): > 64 µg/mL
MIC ([8]; Micrococcus luteus, ATCC9341, 24 h): 0.5 µg/mL (≈ 0.345 µM)
MIC ([9]; 24 h): > 64 µg/mL
MIC [10]: > 64 µg/mL
MIC [11]: 0.25 µg/mL (≈ 0.173 µM)
MIC [12]: > 64 µg/mL
MIC ([13]; Acinetobacter, ATCC49137, 24 h): > 64 µg/mL
MIC ([14]; Staphylococcus aureus, ATCC27734, 24 h): 1 µg/mL (≈ 0.69 µM)
MIC ([15]; Streptococcus pneumoniae, ATCC700671, 24 h): 0.5 µg/mL (≈ 0.345 µM)
MIC [26]: 0.25 µg/mL (≈ 0.173 µM)
MIC [27]: 1 µg/mL (≈ 0.69 µM)
MIC [28]: > 64 µg/mL
MIC ([17]; 24 h): > 64 µg/mL
MIC ([18]; 24 h): 8 µg/mL (≈ 5.52 µM)
MIC ([19]; Streptococcus pneumoniae, ATCC49619, 24 h): 0.5 to 1 µg/mL (≈ 0.345 to 0.69 µM)
MIC [20]: 1 µg/mL (≈ 0.69 µM)
MIC [29]: > 64 µg/mL
MIC ([21]; Streptococcus pneumoniae, ATCC700676, 24 h): 0.25 µg/mL (≈ 0.173 µM)
MIC ([22]; Burkholderia cepacia, ATCC25416, 24 h): > 64 µg/mL
